Where two headings read alike, the source gives them in different places.
Legend:
hMT1 = hMT1 (Homo sapiens, UniProt P48039); assay: 2-[125I]-iodomelatonin competition binding, human MT1; parameters: hMT1: unit not given here
Description: (§1) This approach has been described very often by our laboratory and others. […] The results were expressed as Ki, taking into account the concentration of radioligand used in each experiment. […] The reaction was stopped by rapid filtration through GF/B Unifilters, followed by three successive washes with ice-cold buffer. Data were analyzed by using the program PRISM (GraphPad Software Inc., San Diego, CA). For saturation assays, the density of binding sites (Bmax) and the dissociation constant of the radioligand (KD) were calculated according to the Scatchard method. […] A similar protocol was used when the binding was performed on whole cells, as described by Legros et al.. As per Plos One policy, all the raw data–listings from radioactivity counter are attached as raw files (Supplementary Tables A to M in S1 Data).

hMT2 = molecular target: T1, hMT2 (Homo sapiens, UniProt P49286); assay: 2-[125I]-iodomelatonin competition binding, human MT2
T1 sequence (P49286 1-362): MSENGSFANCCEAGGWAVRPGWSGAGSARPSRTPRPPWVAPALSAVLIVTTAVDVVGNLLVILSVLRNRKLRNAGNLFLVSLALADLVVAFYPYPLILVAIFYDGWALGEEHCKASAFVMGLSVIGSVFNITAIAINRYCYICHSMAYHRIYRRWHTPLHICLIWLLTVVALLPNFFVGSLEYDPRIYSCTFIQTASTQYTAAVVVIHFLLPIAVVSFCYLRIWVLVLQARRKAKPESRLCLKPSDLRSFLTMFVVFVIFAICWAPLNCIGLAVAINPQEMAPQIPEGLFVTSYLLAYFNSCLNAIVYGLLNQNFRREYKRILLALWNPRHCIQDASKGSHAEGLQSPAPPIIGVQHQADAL
Description: as §1

Platypus Mel1C [1] = molecular target: T2, Platypus Mel1C (Ornithorhynchus anatinus, UniProt A0A2P1K6N2); assay: 2-[125I]-iodomelatonin competition binding, membranes from stably transfected CHO cells, platypus Mel1c; conditions: membranes from stably transfected CHO cells, radioligand 2-[125I]-iodomelatonin; for Ki: read-out: Platypus Mel1C (converted)
T2 sequence (A0A2P1K6N2 1-349): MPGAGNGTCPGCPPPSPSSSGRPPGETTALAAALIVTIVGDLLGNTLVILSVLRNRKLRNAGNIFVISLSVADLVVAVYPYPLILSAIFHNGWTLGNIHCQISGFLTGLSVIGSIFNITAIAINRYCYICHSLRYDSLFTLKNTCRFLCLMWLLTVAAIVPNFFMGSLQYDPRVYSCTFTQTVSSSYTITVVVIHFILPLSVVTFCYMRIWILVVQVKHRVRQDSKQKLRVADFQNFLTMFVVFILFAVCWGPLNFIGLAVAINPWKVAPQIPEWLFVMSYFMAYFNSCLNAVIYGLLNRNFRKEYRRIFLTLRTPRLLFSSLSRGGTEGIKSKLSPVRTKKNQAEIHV
Description: (§2) CHO-Flp-In cells (Thermo Fisher Scientific, Waltham, USA) were cultivated in the presence of zeocin (0.1 mg/ml). The cells were cotransfected with either platypus (cloned sequence that will be submitted to GenBank) Mel1c/pcDNA5-FRT (platypus Mel1c) or X. laevis (NM 001087919.1) Mel1c/pcDNA5-FRT (clawed frog Mel1c) and Flp recombinase expression pOG44 plasmid using PEIpro (Invitrogen, Carlsbad, CA). CHO cells stably expressing platypus Mel1c or clawed frog Mel1c were selected using hygromycin (0.6 mg/ml). CHO-Flp-In-platypus Mel1c cells were grown in HAM F12 with 2 mM glutamine and supplemented with 10% fetal calf serum. Cells were selected using antibiotic pressure (hygromycin) for 72 h. […] After confirmation of the presence of the transgene, the cells were amplified up to 2 x 10^9 cells. This material was used to prepare the cell membranes used in further pharmacological experiments.
(§3) This standard procedure was described in a previous experiment with CHO cells expressing the sheep MT2 receptor [23]. […] The resulting pellet was suspended in 5 mM Tris/HCl (pH 7.4) containing 2 mM EDTA and homogenized using a Kinematica polytron. The homogenate was then centrifuged (20,000g, 30 min, 4°C) and the resulting pellet suspended in 75 mM Tris/HCl (pH 7.4) containing 2 mM EDTA and 12.5 mM MgCl2. The protein content was determined according to the method of Lowry et al. using the Bio-Rad kit (Bio-Rad SA, Ivry-sur-Seine, France). Aliquots of membrane preparations were stored in binding buffer (50 mM Tris/HCl, pH 7.4 containing 5 mM MgCl2 and 1 mM EDTA) at –80°C until use.
as §1

Xenopus Mel1C = molecular target: T3, Xenopus Mel1C (Xenopus laevis, UniProt P49219); assay: 2-[125I]-iodomelatonin competition binding, membranes from stably transfected CHO cells, Xenopus Mel1c; conditions: radioligand 2-[125I]-iodomelatonin
T3 construct: expressed in transfected cells
T3 sequence (P49219 1-420): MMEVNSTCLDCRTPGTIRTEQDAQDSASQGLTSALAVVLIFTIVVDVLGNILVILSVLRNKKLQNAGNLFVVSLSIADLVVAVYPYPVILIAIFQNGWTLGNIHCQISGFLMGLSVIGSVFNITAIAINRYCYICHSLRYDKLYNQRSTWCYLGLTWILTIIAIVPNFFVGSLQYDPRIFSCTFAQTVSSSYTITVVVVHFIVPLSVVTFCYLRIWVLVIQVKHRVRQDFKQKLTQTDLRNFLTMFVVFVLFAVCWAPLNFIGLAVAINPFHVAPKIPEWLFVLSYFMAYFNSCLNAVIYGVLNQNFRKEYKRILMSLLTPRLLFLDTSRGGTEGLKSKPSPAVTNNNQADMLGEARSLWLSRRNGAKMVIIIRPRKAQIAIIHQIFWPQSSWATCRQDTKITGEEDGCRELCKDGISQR
Description: as §2, §3, §1

X. laevis Mel1c receptor = molecular target: T4, X. laevis Mel1c receptor (Xenopus laevis, UniProt P49219); assay: 2-[125I]-iodomelatonin competition binding, transiently transfected COS7 cells, Xenopus Mel1c; conditions: COS7 cells transiently transfected with Mel1c gene, radioligand 2-[125I]-iodomelatonin, two transfections, triplicate; for Ki: read-out: pKi Xenopus laevis (converted)
T4 construct: expressed in transfected cells; host or cells: COS7 (transient nucleofection, pCIneo vector)
T4 sequence (P49219 1-354 isoform P49219-2): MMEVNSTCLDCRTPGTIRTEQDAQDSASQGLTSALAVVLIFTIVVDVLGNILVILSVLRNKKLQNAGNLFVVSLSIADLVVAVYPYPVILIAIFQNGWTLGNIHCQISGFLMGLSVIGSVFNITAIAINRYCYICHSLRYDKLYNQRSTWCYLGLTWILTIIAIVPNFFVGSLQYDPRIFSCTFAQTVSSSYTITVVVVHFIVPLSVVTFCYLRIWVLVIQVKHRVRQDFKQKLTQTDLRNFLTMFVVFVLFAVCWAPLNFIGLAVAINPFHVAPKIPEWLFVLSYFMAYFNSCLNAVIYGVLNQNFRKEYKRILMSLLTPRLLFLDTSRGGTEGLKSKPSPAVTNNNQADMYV
Description: (§4) COS7 cells obtained from the American Type Culture Collection were maintained in DMEM GlutaMAX (Thermo Fisher Scientific, Waltham, USA) supplemented with 10% (v/v) fetal calf serum. Nucleofection of COS7 cells was performed according to the manufacturer's instructions using the Nucleofector machine (Amaxa, Cologne, Germany). Adherent COS7 cells were washed in phosphate-buffered saline (PBS), trypsinized, and gently resuspended in V nucleofection solution to a final concentration of 7 × 10^6 cells/100 μl. Next, 5 μg of pCIneo/Mel1c vector was mixed with 100 μl of the COS7 cell suspension, transferred to a […] electroporation cuvette, and nucleofected using program A024 and an Amaxa Nucleofector apparatus. Just after the nucleofection, 500 μl of media supplemented with 20% (v/v) fetal calf serum was added to the cell suspension and cultured in a humidified 37°C, 5% CO2 incubator for 20 minutes. Fourteen million cells were transferred to a T225 flask containing 50 ml of media supplemented with 20% (v/v) fetal calf serum and cultured in a humidified 37°C, 5% CO2 incubator. Two days after transfection, the cells were harvested in PBS, pelleted, and stored at -80°C until use.
as §1
(§5) To obtain stable expression of the receptor for future studies, a preliminary step involving transient expression of the receptor was performed. The Mel1c receptors from the three species were expressed in transiently transfected COS7 cells. A limited number of compounds were tested in order to gain a preliminary perception of the characteristics of Mel1c from these species.

Platypus Mel1C [2] = molecular target: T2, Platypus Mel1C; assay: 2-[125I]-iodomelatonin competition binding, transiently transfected COS7 cells, platypus Mel1c; conditions: COS7 cells transiently transfected with Mel1c gene; radioligand 2-[125I]-iodomelatonin; two transfections, triplicate
Description: as §4, §1, §5

G. gallus Mel1c receptor = molecular target: T5, G. gallus Mel1c receptor (Gallus gallus, UniProt P49288); assay: 2-[125I]-iodomelatonin competition binding, transiently transfected COS7 cells, chicken Mel1c; conditions: for pKi Gallus gallus: COS7 cells transiently transfected with Mel1c gene, radioligand 2-[125I]-iodomelatonin, two transfections, triplicate
T5 construct: expressed in transfected cells; host or cells: COS7 (transient nucleofection, pCIneo vector)
T5 sequence (P49288 1-346): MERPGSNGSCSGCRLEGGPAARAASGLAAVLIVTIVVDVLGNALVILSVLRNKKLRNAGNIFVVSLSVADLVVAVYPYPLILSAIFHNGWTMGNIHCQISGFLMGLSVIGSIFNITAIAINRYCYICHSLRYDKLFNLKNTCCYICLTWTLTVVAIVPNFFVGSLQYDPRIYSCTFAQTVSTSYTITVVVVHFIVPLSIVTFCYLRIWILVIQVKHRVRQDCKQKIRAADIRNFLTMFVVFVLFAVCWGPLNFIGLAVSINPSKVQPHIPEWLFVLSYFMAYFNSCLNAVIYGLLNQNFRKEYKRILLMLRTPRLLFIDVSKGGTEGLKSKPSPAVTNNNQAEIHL
Description: as §4, §1, §5

[3] = membranes from stably transfected CHO cells, radioligand 2-[125I]-iodomelatonin
[4] = membranes from stably transfected CHO cells, radioligand 2-[125I]-iodomelatonin, read-out: hMT1 (converted)
[5] = membranes from stably transfected CHO cells, radioligand 2-[125I]-iodomelatonin, read-out: hMT2 (converted)

hMT1, sequence (P48039 whole entry): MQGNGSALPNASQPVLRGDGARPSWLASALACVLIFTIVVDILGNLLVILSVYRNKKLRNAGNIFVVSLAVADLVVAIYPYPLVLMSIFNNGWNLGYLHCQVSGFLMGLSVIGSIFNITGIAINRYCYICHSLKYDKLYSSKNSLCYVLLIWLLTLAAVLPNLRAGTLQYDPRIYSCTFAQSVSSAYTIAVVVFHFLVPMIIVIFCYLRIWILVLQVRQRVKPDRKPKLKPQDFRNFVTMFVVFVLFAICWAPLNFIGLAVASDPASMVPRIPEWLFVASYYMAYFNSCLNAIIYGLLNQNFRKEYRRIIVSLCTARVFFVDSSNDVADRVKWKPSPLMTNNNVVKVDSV

| Compound | pKi Ornithorhyncus anatinus (Platypus Mel1C [2]) | Ki (hMT1; [4]) | Ki (hMT2; [5]) | Ki (Platypus Mel1C [1]) | Ki (Xenopus Mel1C) | also measured |
| --- | --- | --- | --- | --- | --- | --- |
| 2-(2-[(2-iodo-4,5-dimethoxyphenyl)methyl]-4,5-dimethoxy phenyl [DIV880] |  |  |  |  |  | hMT1 (hMT1; [3]): 6.1; hMT2 (hMT2; [3]): 8.0; pKi (Platypus Mel1C [1]): 6.2; pKi (Xenopus Mel1C): 5.9 |
| COc1ccc2[nH]c(I)c(CCNC(C)=O)c2c1 [2-Iodomelatonin, 2-iodomelatonin] | 10.2 |  |  |  |  | pKi Xenopus laevis (X. laevis Mel1c receptor): 10.0; pKi Gallus gallus (G. gallus Mel1c receptor): 9.8 |
| COc1ccc2[nH]cc(CCNC(C)=O)c2c1I [4-Iodomelatonin, N-[2-(4-iodo-5-methoxy-1H-indol-3-yl)ethyl]acetamide] |  | 15.8 nM | 12.6 nM | 100 nM | 251 nM |  |
| CCC(=O)N[C@@H]1Cc2ccccc2[C@H](c2ccccc2)C1 [4P-PDOT, N-[(2S,4S)-4-phenyl-1,2,3,4-tetrahydronaphthalen-2-yl]propanamide] | 6.7 | 158 nM | 1.26 nM | 631 nM | 794 nM | Ki (X. laevis Mel1c receptor): 200 nM; Ki (G. gallus Mel1c receptor): 398 nM |
| COc1cc2c(CCNC(C)=O)c[nH]c2cc1I [6-Iodomelatonin, N-[2-(6-iodo-5-methoxy-1H-indol-3-yl)ethyl]acetamide] |  | 1.58 nM | 2.51 nM | 3.98 nM | 7.94 nM |  |
| COc1cc(I)c2[nH]cc(CCNC(C)=O)c2c1 [7-Iodomelatonin] |  |  |  |  |  | hMT1 (hMT1): 7.3; hMT2 (hMT2): 7.3; pKi (Platypus Mel1C [1]): 7.5; pKi (Xenopus Mel1C): 7.3 |
| COc1ccc2cccc(CCNC(C)=O)c2c1 [Agomelatin ®, N-(2-(7-methoxynaphthalen-1-yl)ethyl)acetamide] | 9.6 |  |  | 0.398 nM | 0.794 nM | Ki (X. laevis Mel1c receptor): 0.631 nM |
| COc1ccc(CCN(C)CCCC(C#N)(c2cc(OC)c(OC)c(OC)c2)C(C)C)cc1OC (centres unmarked) [D600, methoxyverapamil] |  | 100 nM | > 10000 nM | 2000 nM | 2000 nM |  |
| CC(=O)NCCc1c(Cc2ccccc2)[nH]c2ccccc12 [Luzindole, N-acetyl-2-benzyltryptamine] | 5.9 |  | 25.1 nM | 2510 nM | 2510 nM | hMT1 (hMT1; [3]): 6.6; Ki (X. laevis Mel1c receptor): 2000 nM; Ki (G. gallus Mel1c receptor): 3980 nM |
| O=C(NCCc1cccc2ccccc12)C1CCC1 [S20928, (N-[2-(1-naphthyl)ethyl]cyclobutanecarboxamide)] |  | 79.4 nM | 79.4 nM | 794 nM | 1260 nM |  |
| COc1ccc2ncn(CCNC(C)=O)c2c1 [S21278, N-[2-(6-methoxybenzimidazol-1-yl)ethyl]acetamide] |  | 631 nM | 631 nM | 2000 nM | 1580 nM |  |
| COc1cc2c(CCNC(C)=O)c(I)[nH]c2cc1[N+](=O)[O-] [S27128, N-[2-(2-iodo-5-methoxy-6-nitro-1H-indol-3-yl)ethyl]acetamide] |  | 1.26 nM |  | 1 nM | 2.51 nM |  |
| COc1ccc2[nH]c(-c3cccc4ccccc34)c(CCNC(=O)CI)c2n1 [S70254] | 6.6 |  |  |  |  | hMT1 (hMT1; [3]): 7.0; pKi Xenopus laevis (X. laevis Mel1c receptor): 6.8; pKi Gallus gallus (G. gallus Mel1c receptor): 6.6; hMT2 (hMT2; [3]): 9.0; pKi (Xenopus Mel1C): 6.3 |
| COCC(CNC(C)=O)c1cccc2ccc(OC)cc12 (centres unmarked) [S73893, N-[3-methoxy-2-(7-methoxy-1-naphthyl)propyl]acetamide] |  | 3.98 nM | 7.94 nM | 20 nM | 39.8 nM |  |
| COc1ccc2cccc(C(CO)CNC(=O)CF)c2c1 (centres unmarked) [S75436, 2-fluoro-N-[3-hydroxy-2-(7-methoxy-1-naphthyl)propyl]acetamide] |  |  |  | 6.31 nM | 15.8 nM | Ki (hMT1): 12.6 nM; Ki (hMT2): 1.26 nM |
| COc1ccc2[nH]cc(CCNC(=O)CI)c2c1 [SD6, N-[2-(5-methoxy-1H-indol-3-yl)ethyl]iodoacetamide] |  |  |  | 0.398 nM | 0.501 nM |  |
| (S)-N-(2-(1,6,7,8-tetrahydro-2H-indeno-(5,4)furan-8-yl)ethyl)propionamide [Ramelteon ®] | 10.1 |  |  |  |  | hMT1 (hMT1; [3]): 10.1; pKi Xenopus laevis (X. laevis Mel1c receptor): 10.1; pKi Gallus gallus (G. gallus Mel1c receptor): 9.8; Platypus Mel1C (Platypus Mel1C [1]): 9.9; Xenopus Mel1C (Xenopus Mel1C): 9.9 |

From publication PMC5846726, “Characterization of the Mel1c melatoninergic receptor in platypus (Ornithorhynchus anatinus)” (PLoS ONE, 2018)
